Data taken from ChEMBL document CHEMBL3352320, “Novel benzothiazinones (BTOs) as allosteric modulator or substrate competitive inhibitor of glycogen synthase kinase 3β (GSK-3β) with cellular activity of promoting glucose uptake” (Bioorg Med Chem Lett, 2014).
pIC50: −log10 of the molar value. Blank lines part the entries; values can stand above or below the molecule they belong to. Activity calls are given as the source filed them. The rule behind the calls is not given here. Non-standard residues stand in square brackets, D forms with d. Residues, ends and D or L forms follow the SMILES beside them. *: point of attachment. Myristoyl = CCCCCCCCCCCCCC(=O)*; pS = N[C@@H](COP(=O)(O)O)C(=O)O

What was measured:
[1] = biological target: T1, Glycogen synthase kinase-3 beta (Homo sapiens, UniProt P49841); experiment: Inhibition of GSK3beta (unknown origin) using peptide substrate GS2 assessed as ATP remaining by Kinase-Glo luminescent kinase assay
Target sequence in this assay (P49841 whole entry): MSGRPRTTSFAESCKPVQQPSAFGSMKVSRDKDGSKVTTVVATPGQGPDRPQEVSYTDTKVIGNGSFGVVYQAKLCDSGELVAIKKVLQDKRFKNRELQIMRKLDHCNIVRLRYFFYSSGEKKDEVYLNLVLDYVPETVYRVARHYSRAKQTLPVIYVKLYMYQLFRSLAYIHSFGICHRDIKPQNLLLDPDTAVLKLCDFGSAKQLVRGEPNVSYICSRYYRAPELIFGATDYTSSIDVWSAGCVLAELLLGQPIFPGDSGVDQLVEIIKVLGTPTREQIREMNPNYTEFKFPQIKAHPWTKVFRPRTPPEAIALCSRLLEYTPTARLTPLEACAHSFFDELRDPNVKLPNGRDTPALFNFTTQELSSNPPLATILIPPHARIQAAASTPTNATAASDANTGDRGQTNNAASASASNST

[2] = biological target: T1, Glycogen synthase kinase-3 beta; experiment: Inhibition of GSK3beta in human […] cells assessed as decrease in ratio of phosphorylated GS/GS at 10 uM after 12 hrs by Western blot analysis; format: cell-based
Target sequence in this assay (P49841 whole entry, looked up): as the sequence (P49841 whole entry) above

[3] = tested on: HepG2; experiment: Increase in glucose incorporation in human HepG2 cells at 10 uM after 12 hrs by glucose assay; format: functional, cell-based
[4] = tested on: 3T3-L1; experiment: Increase in glucose incorporation in mouse 3T3L1 cells at 10 uM after 12 hrs by glucose assay; format: functional, cell-based
[5] = tested on: HepG2; experiment: Increase in glucose incorporation in human HepG2 cells at 2 uM after 12 hrs by glucose assay; format: functional, cell-based
[6] = tested on: 3T3-L1; experiment: Increase in glucose incorporation in mouse 3T3L1 cells at 2 uM after 12 hrs by glucose assay; format: functional, cell-based
[7] = biological target: T1, Glycogen synthase kinase-3 beta; details: HepG2, 2 uM
Target sequence in this assay (P49841 whole entry, looked up): as the sequence (P49841 whole entry) above
Description: Inhibition of GSK3beta in human HepG2 cells assessed as decrease in ratio of phosphorylated GS/GS at 2 uM after 12 hrs by Western blot analysis

[8] = tested on: HepG2; experiment: Increase in glucose incorporation in human HepG2 cells at 34 uM after 12 hrs by glucose assay; format: functional, cell-based
[9] = tested on: 3T3-L1; experiment: Increase in glucose incorporation in mouse 3T3L1 cells at 34 uM after 12 hrs by glucose assay; format: functional, cell-based
[10] = biological target: T1, Glycogen synthase kinase-3 beta; details: HepG2, 34 uM
Target sequence in this assay (P49841 whole entry, looked up): as the sequence (P49841 whole entry) above
Description: Inhibition of GSK3beta in human HepG2 cells assessed as decrease in ratio of phosphorylated GS/GS at 34 uM after 12 hrs by Western blot analysis

[11] = biological target: Receptor tyrosine-protein kinase erbB-4 (Homo sapiens) (UniProt Q15303); experiment: Inhibition of ErbB4 (unknown origin) at 100 uM
[12] = biological target: Platelet-derived growth factor receptor alpha (Homo sapiens) (UniProt P16234); experiment: Inhibition of PDGFRalpha (unknown origin) at 100 uM
[13] = biological target: Platelet-derived growth factor receptor beta (Homo sapiens) (UniProt P09619); experiment: Inhibition of PDGFRbeta (unknown origin) at 100 uM
[14] = biological target: T1, Glycogen synthase kinase-3 beta; experiment: Competitive inhibition of GSK3beta (unknown origin) using peptide substrate GS2 assessed as ATP remaining by Kinase-Glo luminescent kinase assay
Target sequence in this assay (P49841 whole entry, looked up): as the sequence (P49841 whole entry) above

[15] = biological target: Cyclin-dependent kinase 1 (Homo sapiens) (UniProt P06493); experiment: Inhibition of CDK1 (unknown origin) at 100 uM
[16] = biological target: Casein kinase II (Homo sapiens) (UniProt P67870+P68400+P19784); experiment: Inhibition of CK2 (unknown origin) at 100 uM; format: protein-complex assay
[17] = biological target: Protein kinase C alpha type (Homo sapiens) (UniProt P17252); experiment: Inhibition of PKCalpha (unknown origin) at 100 uM
[18] = biological target: Vascular endothelial growth factor receptor 2 (Homo sapiens) (UniProt P35968); experiment: Inhibition of KDR (unknown origin) at 100 uM
[19] = biological target: Fibroblast growth factor receptor 1 (Homo sapiens) (UniProt P11362); experiment: Inhibition of FGFR1 (unknown origin) at 100 uM
[20] = biological target: Proto-oncogene tyrosine-protein kinase Src (Homo sapiens) (UniProt P12931); details: at 100 µM
Description: Inhibition of c-Src (unknown origin) at 100 uM

Receptor tyrosine-protein kinase erbB-4 (Homo sapiens), sequence (Q15303 whole entry): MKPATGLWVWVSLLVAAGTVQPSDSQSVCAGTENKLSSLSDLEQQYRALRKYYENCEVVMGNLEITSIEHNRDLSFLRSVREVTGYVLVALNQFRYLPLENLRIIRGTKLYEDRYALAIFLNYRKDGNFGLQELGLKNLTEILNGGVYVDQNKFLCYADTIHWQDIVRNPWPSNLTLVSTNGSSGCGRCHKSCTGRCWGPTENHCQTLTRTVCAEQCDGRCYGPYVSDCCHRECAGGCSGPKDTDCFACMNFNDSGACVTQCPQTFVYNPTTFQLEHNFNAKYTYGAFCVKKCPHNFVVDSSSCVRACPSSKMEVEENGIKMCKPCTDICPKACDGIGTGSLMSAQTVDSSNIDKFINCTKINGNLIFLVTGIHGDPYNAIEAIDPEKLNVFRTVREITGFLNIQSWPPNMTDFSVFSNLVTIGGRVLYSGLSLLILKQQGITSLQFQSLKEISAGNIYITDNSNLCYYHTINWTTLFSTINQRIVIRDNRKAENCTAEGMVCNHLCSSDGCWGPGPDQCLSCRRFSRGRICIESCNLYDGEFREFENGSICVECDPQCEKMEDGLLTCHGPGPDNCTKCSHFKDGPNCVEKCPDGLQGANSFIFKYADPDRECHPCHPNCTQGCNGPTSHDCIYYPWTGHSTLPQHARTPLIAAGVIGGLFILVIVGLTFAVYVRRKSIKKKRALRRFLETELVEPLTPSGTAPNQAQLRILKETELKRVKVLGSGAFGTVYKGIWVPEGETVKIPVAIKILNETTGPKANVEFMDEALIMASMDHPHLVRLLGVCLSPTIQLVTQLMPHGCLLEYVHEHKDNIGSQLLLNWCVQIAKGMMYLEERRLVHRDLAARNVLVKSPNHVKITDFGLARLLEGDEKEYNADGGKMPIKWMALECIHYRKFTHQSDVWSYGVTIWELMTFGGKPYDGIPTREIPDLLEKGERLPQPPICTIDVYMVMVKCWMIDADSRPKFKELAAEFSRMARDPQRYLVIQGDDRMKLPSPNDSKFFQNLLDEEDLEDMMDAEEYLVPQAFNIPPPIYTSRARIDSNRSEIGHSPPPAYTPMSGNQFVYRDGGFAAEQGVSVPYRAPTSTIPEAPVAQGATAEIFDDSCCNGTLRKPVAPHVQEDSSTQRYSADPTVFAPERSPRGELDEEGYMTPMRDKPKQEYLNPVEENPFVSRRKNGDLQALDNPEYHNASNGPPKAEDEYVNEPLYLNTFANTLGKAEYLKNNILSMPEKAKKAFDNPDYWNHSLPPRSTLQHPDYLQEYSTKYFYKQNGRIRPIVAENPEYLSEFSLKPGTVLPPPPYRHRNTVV
Platelet-derived growth factor receptor alpha (Homo sapiens), sequence (P16234 whole entry): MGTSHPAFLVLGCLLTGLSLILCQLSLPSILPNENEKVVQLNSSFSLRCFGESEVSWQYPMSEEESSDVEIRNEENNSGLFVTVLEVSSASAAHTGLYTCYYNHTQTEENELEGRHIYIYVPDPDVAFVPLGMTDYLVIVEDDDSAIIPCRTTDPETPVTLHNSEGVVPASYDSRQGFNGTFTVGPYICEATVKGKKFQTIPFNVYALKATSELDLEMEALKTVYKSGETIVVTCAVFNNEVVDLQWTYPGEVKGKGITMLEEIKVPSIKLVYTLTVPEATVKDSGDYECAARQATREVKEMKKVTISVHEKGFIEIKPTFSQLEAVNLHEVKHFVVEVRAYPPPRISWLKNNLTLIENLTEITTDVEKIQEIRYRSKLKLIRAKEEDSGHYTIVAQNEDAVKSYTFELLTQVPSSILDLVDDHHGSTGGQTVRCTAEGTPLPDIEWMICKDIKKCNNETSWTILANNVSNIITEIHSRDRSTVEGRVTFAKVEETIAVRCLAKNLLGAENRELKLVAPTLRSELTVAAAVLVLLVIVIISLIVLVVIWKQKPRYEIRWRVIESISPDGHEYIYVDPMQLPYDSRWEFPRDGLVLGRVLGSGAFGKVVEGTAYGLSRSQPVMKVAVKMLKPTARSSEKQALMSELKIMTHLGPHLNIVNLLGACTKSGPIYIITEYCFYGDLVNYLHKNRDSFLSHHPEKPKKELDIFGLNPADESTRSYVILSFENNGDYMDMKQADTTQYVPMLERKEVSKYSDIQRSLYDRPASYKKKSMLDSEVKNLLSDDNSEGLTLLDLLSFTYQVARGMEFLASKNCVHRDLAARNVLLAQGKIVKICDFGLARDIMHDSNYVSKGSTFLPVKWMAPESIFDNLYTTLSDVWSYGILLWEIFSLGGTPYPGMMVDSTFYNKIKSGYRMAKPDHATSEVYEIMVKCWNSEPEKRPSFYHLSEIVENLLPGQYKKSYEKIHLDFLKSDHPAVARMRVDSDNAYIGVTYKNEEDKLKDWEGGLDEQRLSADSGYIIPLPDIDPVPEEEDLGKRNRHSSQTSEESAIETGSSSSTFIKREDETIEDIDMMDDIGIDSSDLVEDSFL
Platelet-derived growth factor receptor beta (Homo sapiens), sequence (P09619 whole entry): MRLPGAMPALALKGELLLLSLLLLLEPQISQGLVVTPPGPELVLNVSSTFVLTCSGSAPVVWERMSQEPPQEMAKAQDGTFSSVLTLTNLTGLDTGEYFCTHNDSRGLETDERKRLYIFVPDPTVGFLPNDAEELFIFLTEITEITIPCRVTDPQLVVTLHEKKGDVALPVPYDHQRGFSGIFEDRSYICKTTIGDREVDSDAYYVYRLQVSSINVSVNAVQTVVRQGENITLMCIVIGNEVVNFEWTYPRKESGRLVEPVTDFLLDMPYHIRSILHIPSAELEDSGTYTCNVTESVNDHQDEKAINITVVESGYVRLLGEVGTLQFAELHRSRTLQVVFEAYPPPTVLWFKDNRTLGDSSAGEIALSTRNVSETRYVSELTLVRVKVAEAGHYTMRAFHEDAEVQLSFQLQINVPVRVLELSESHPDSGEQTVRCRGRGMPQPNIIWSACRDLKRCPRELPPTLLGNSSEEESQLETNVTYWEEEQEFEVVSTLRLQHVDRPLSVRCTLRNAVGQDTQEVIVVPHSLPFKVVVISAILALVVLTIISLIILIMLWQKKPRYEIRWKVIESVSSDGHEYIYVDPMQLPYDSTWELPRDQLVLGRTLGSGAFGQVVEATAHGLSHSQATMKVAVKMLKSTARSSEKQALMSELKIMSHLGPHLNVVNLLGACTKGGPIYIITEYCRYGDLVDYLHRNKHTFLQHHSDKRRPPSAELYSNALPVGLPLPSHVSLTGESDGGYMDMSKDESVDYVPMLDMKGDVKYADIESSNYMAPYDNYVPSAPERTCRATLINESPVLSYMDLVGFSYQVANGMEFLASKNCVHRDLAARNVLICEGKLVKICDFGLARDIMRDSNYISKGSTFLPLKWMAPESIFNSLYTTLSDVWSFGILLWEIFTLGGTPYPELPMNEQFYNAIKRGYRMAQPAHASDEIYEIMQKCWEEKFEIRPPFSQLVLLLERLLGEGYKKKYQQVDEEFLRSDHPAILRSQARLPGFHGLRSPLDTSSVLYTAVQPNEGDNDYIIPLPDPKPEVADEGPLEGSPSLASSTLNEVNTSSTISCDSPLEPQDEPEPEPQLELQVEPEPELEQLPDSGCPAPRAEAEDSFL
Cyclin-dependent kinase 1 (Homo sapiens), sequence (P06493 whole entry, looked up): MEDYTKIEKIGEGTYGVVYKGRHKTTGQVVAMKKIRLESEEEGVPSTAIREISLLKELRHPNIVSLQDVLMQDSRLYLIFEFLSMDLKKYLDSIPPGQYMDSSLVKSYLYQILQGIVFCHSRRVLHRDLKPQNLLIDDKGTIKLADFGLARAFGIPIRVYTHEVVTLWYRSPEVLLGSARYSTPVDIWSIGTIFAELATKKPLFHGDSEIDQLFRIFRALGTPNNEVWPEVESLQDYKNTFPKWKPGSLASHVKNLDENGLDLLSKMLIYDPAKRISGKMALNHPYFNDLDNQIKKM

pIC50 [1]: 5.10 | inhibition [2]: Active
SMILES: CCCCCCCCCCCC(=O)NNC(=O)C1Sc2ccccc2N(CC)C1=O (stereo not drawn)
Activity [3]: Active | Activity [4]: Active

inhibition [7]: Active
SMILES: Cn1sc(=O)n(Cc2ccccc2)c1=O
Activity [5]: Active | Activity [6]: Active

inhibition [10]: Active
SMILES: Cn1cc(C2=C(c3ccc(Cl)cc3Cl)C(=O)NC2=O)c2ccccc21
Activity [8]: Active | Activity [9]: Active

inhibition [11]: 88.1%
SMILES: CN(C)C/C=C/C(=O)Nc1cc2c(Nc3ccc(F)c(Cl)c3)ncnc2cc1O[C@H]1CCOC1

inhibition [12]: 71.4% | inhibition [13]: 70.6%
SMILES: CCN(CC)CCNC(=O)c1c(C)[nH]c(/C=C2\C(=O)Nc3ccc(F)cc32)c1C

pIC50 [1]: 5.00 | inhibition [14]: Active | inhibition [15]: 36% | inhibition [16]: 0% | inhibition [17]: 13% | inhibition [18]: 12.4% | inhibition [19]: 29.3% | inhibition [12]: 0% | inhibition [13]: 0% | inhibition [11]: 0% | inhibition [2]: Active | inhibition [20]: 12.2%
SMILES: CCCCCCCCCCCC(=O)NNC(=O)C1Sc2ccccc2N(Cc2ccccc2)C1=O (stereo not drawn)
Activity [3]: Active | Activity [4]: Active

pIC50 [1]: 4.40
SMILES: CCCCCCCCCCCCCC(=O)NCC(=O)N[C@@H](CCCCN)C(=O)N[C@@H](CCC(=O)O)C(=O)N[C@@H](C)C(=O)N1CCC[C@H]1C(=O)N1CCC[C@H]1C(=O)N[C@@H](C)C(=O)N1CCC[C@H]1C(=O)N1CCC[C@H]1C(=O)N[C@@H](CCC(N)=O)C(=O)N[C@@H](COP(=O)(O)O)C(=O)N1CCC[C@H]1C(N)=O (Myristoyl-GKEAPPAPPQ[pS]P-NH2)
